Literature values in EP4364951A1, “OVERCOAT INK AND INK SET CONTAINING SAME” (DNP Fine Chemicals Co., Ltd., priority 2021, dated 2023).

Settings: water-octanol, common logarithm

**Q.** For CCC(O)CO (stereo not shown) [1,2-Butanediol], which Partition coefficient is on record?
**A.** The Partition coefficient was 1,2-Butanediol (-0.499).

**Q.** With CC(O)CO (stereo not shown) [1,2-Propanediol] as the compound, how does the Partition coefficient read?
**A.** Its Partition coefficient is 1,2-Propanediol (-1.008).

**Q.** With OCCCO [1,3-Propanediol] as the compound, how does the Partition coefficient read?
**A.** The Partition coefficient was 1,3-Propanediol (-1.093).

**Q.** Which Partition coefficient does the source give for CCCC(O)CO (stereo not shown) [1.2-Pentanediol] here?
**A.** Its Partition coefficient is 1.2-Pentanediol (0.011).

**Q.** For CC(C)(O)CCO [3-M ethyl-1,3-butanediol], which Partition coefficient is on record?
**A.** Its Partition coefficient is 3- M ethyl- 1,3- butanediol (-0.329).

**Q.** Which Partition coefficient does the source give for COC(C)CCO (stereo not shown) [3-Methoxy-1-butanol] here?
**A.** The Partition coefficient was 3-Methoxy -1-butanol (0.070).

**Q.** Which Partition coefficient does the source give for CCOCCOCCO [Diethylene glycol monoethyl ether] here?
**A.** The Partition coefficient was “Diethylene glycol monoethyl ether (-0.421)”.
